Experimental data reported in patent publication US20220151229A1, “Synergistic Herbicidal Combinations” (Clariant International Ltd., priority 2019, published 2022).

Key:
Type in all cases: in vivo
[1] = tested on: Galium aparine - GALAP; experiment: Greenhouse post-emergence herbicide trial, Galium aparine; conditions: 200 L/ha
From the text: (§1) Standard post emergence herbicide application procedures were used, as described below, to apply inventive compounds in combination with sulfonylurea herbicides.
(§2) Seed of monocotyledonous and dicotyledonous harmful plants such as Brassica napus (BRSNW) Abutilon theophrasti (ABUTH), Alopecurus myosuroides (ALOMY), Amaranthus retroflexus (AMARE), Digitaria Sanguinalis (DIGSA), Echinochloa crus-galli (ECHCG), Erigeron canadensis (ERICA), Galium aparine (GALAP), Lolium perenne (LOLPE), Sectaria viridis (SETVI), Solanun nigrum (SOLNI), Viola arvensis (VIOAR) were sowed in 18 cm^2 pots. The plants were placed in a greenhouse under controlled environmental conditions, and sub-irrigation. About one week after emergence, seedlings were thinned as needed, including removal of any unhealthy or abnormal plants, to create a uniform series of test pots.
(§3) The plants were maintained for the duration of the test in the greenhouse, where they received a mean of 70 μmol m-2 s-1 of light per day/night. Temperatures averages about 24° C. during the day and about 20° C. during the night. Plants were sub-irrigated throughout the test to ensure adequate soil moisture levels.
(§4) Pots were assigned to different treatment in a randomized experimental design. A set of pots was left untreated as a reference against which effects of the treatments could later be evaluated. Application of tested formulations was made in a spray cabin model 01S-15E designed by CheckTec using the following parameters: • Two edge nozzle Lechler OC2, 200 L/ha, 3 bars. • Two edge nozzle Lechler OC3, 500 L/ha, 3 bars.
(§5) The distance of the nozzle from the plants was between 50 to 53 cm. and the nozzle spacing was 50 cm.
(§6) After treatment, pots were returned to the greenhouse until ready for evaluation. Evaluations were performed at different times after application (DAT: days after treatment), depending on the experiment.
(§7) For evaluation of herbicidal effectiveness, all plants in the test were examined by a single technician, who recorded percent control, a visual measurement of the effectiveness of each treatment by comparison with untreated plants. […] The reported % control values represent the average for all replicates of each treatment.
(§8) Iodosulfuron-methyl-sodium and Nicosulfuron were applied as dilutions of the active ingredient in water.

[2] = tested on: Sectaria Viridis - SETVI; experiment: Greenhouse post-emergence herbicide trial, Sectaria Viridis; conditions: 200 L/ha
From the text: as §1, §2, §3, §4, §5, §6, §7, §8

[3] = tested on: Solanum nigrum - SOLNI; experiment: Greenhouse post-emergence herbicide trial, Solanum nigrum
From the text: as §1, §2, §3, §4, §5, §6, §7, §8

[4] = tested on: Lolium perenne - LOLPE; experiment: Greenhouse post-emergence herbicide trial, Lolium perenne; conditions: 200 L/ha, A1 7.5 % w/w
From the text: as §1, §2, §3, §4, §5, §6, §7, §8

[5] = tested on: Brassica napus - BRSNW; experiment: Greenhouse post-emergence herbicide trial, Brassica napus; conditions: 200 L/ha, A1 7.5 % w/w
From the text: as §1, §2, §3, §4, §5, §6, §7, §8

[6] = Nicosulfuron 40 g Al/ha, 10 DAT
[7] = Nicosulfuron 40 g Al/ha, 16 DAT
[8] = Nicosulfuron 40 g Al/ha, 22 DAT
[9] = Nicosulfuron 40 g Al/ha, 28 DAT

COc1cc(OC)nc(NC(=O)NS(=O)(=O)c2ncccc2C(=O)N(C)C)n1 [Nicosulfuron, nicosulfuron, reference compound]
Effectiveness control ([1]; Nicosulfuron 40 g Al/ha, 1 DAT): 0.00% | Effectiveness control ([1]; Nicosulfuron 40 g Al/ha, 2 DAT): 0.00% | Effectiveness control ([1]; Nicosulfuron 40 g Al/ha, 7 DAT): 3.00% | Effectiveness control [1, 6]: 10.00% | Effectiveness control [1, 7]: 12.75% | Effectiveness control [1, 8]: 12.75% | Effectiveness control [1, 9]: 12.75% | Effectiveness control ([2]; Nicosulfuron 40 g Al/ha, 1 DAT): 0.00% | Effectiveness control ([2]; Nicosulfuron 40 g Al/ha, 2 DAT): 0.00% | Effectiveness control ([2]; Nicosulfuron 40 g Al/ha, 7 DAT): 5.00% | Effectiveness control [2, 6]: 7.00% | Effectiveness control [2, 7]: 10.75% | Effectiveness control [2, 8]: 7.75% | Effectiveness control [2, 9]: 7.00%

Pelargonic acid 6 EO ester methyl ether [A1]
Effectiveness control ([1]; A1 7.5 % w/w, 1 DAT): 31.75% | Effectiveness control ([1]; A1 7.5 % w/w, 2 DAT): 34.00% | Effectiveness control ([1]; A1 7.5 % w/w, 7 DAT): 35.75% | Effectiveness control ([1]; A1 7.5 % w/w, 10 DAT): 20.00% | Effectiveness control ([1]; A1 7.5 % w/w, 16 DAT): 10.75% | Effectiveness control ([1]; A1 7.5 % w/w, 22 DAT): 10.75% | Effectiveness control ([1]; A1 7.5 % w/w, 28 DAT): 10.75% | Effectiveness control ([3]; 200 L/ha, A1 0.1 % w/w, 1 DAT): 0.00% | Effectiveness control ([3]; 200 L/ha, A1 0.1 % w/w, 2 DAT): 0.00% | Effectiveness control ([3]; 200 L/ha, A1 0.1 % w/w, 7 DAT): 0.00% | Effectiveness control ([3]; 200 L/ha, A1 0.1 % w/w, 15 DAT): 0.00% | Effectiveness control ([3]; 200 L/ha, A1 0.1 % w/w, 21 DAT): 0.00% | Effectiveness control ([3]; 200 L/ha, A1 2.5 % w/w, 1 DAT): 0.00% | Effectiveness control ([3]; 200 L/ha, A1 2.5 % w/w, 2 DAT): 0.00% | Effectiveness control ([3]; 200 L/ha, A1 2.5 % w/w, 7 DAT): 0.00% | Effectiveness control ([3]; 200 L/ha, A1 2.5 % w/w, 15 DAT): 0.00% | Effectiveness control ([3]; 200 L/ha, A1 2.5 % w/w, 21 DAT): 0.00% | Effectiveness control ([3]; 200 L/ha, A1 5 % w/w, 1 DAT): 0.75% | Effectiveness control ([3]; 200 L/ha, A1 5 % w/w, 2 DAT): 3.50% | Effectiveness control ([3]; 200 L/ha, A1 5 % w/w, 7 DAT): 3.50% | Effectiveness control ([3]; 200 L/ha, A1 5 % w/w, 15 DAT): 0.00% | Effectiveness control ([3]; 200 L/ha, A1 5 % w/w, 21 DAT): 0.00% | Effectiveness control ([3]; 200 L/ha, A1 10 % w/w, 1 DAT): 25.00% | Effectiveness control ([3]; 200 L/ha, A1 10 % w/w, 2 DAT): 48.50% | Effectiveness control ([3]; 200 L/ha, A1 10 % w/w, 7 DAT): 50.50% | Effectiveness control ([3]; 200 L/ha, A1 10 % w/w, 15 DAT): 47.50% | Effectiveness control ([3]; 200 L/ha, A1 10 % w/w, 21 DAT): 38.75% | Effectiveness control ([3]; 500 L/ha, A1 0.1 % w/w, 1 DAT): 0.00% | Effectiveness control ([3]; 500 L/ha, A1 0.1 % w/w, 2 DAT): 0.00% | Effectiveness control ([3]; 500 L/ha, A1 0.1 % w/w, 7 DAT): 0.00% | Effectiveness control ([3]; 500 L/ha, A1 0.1 % w/w, 15 DAT): 0.00% | Effectiveness control ([3]; 500 L/ha, A1 0.1 % w/w, 21 DAT): 0.00% | Effectiveness control ([3]; 500 L/ha, A1 2.5 % w/w, 1 DAT): 10.00% | Effectiveness control ([3]; 500 L/ha, A1 2.5 % w/w, 2 DAT): 21.25% | Effectiveness control ([3]; 500 L/ha, A1 2.5 % w/w, 7 DAT): 13.75% | Effectiveness control ([3]; 500 L/ha, A1 2.5 % w/w, 15 DAT): 7.75% | Effectiveness control ([3]; 500 L/ha, A1 2.5 % w/w, 21 DAT): 5.00% | Effectiveness control ([3]; 500 L/ha, A1 5 % w/w, 1 DAT): 26.00% | Effectiveness control ([3]; 500 L/ha, A1 5 % w/w, 2 DAT): 42.50% | Effectiveness control ([3]; 500 L/ha, A1 5 % w/w, 7 DAT): 32.50% | Effectiveness control ([3]; 500 L/ha, A1 5 % w/w, 15 DAT): 28.75% | Effectiveness control ([3]; 500 L/ha, A1 5 % w/w, 21 DAT): 27.50% | Effectiveness control ([3]; 500 L/ha, A1 10 % w/w, 1 DAT): 65.50% | Effectiveness control ([3]; 500 L/ha, A1 10 % w/w, 2 DAT): 75.50% | Effectiveness control ([3]; 500 L/ha, A1 10 % w/w, 7 DAT): 72.50% | Effectiveness control ([3]; 500 L/ha, A1 10 % w/w, 15 DAT): 63.75% | Effectiveness control ([3]; 500 L/ha, A1 10 % w/w, 21 DAT): 53.00% | Effectiveness control ([2]; A1 7.5 % w/w, 1 DAT): 19.25% | Effectiveness control ([2]; A1 7.5 % w/w, 2 DAT): 21.25% | Effectiveness control ([2]; A1 7.5 % w/w, 7 DAT): 21.25% | Effectiveness control ([2]; A1 7.5 % w/w, 10 DAT): 20.00% | Effectiveness control ([2]; A1 7.5 % w/w, 16 DAT): 16.00% | Effectiveness control ([2]; A1 7.5 % w/w, 22 DAT): 16.00% | Effectiveness control ([2]; A1 7.5 % w/w, 28 DAT): 0.00% | Effectiveness control ([4]; 1 DAT): 11.50% | Effectiveness control ([4]; 2 DAT): 11.50% | Effectiveness control ([4]; 7 DAT): 5.00% | Effectiveness control ([4]; 10 DAT): 0.00% | Effectiveness control ([4]; 16 DAT): 0.00% | Effectiveness control ([4]; 22 DAT): 0.00% | Effectiveness control ([4]; 28 DAT): 0.00% | Effectiveness control ([5]; 1 DAT): 74.25% | Effectiveness control ([5]; 2 DAT): 78.00% | Effectiveness control ([5]; 7 DAT): 75.00% | Effectiveness control ([5]; 10 DAT): 56.25% | Effectiveness control ([5]; 16 DAT): 39.25% | Effectiveness control ([5]; 22 DAT): 33.50% | Effectiveness control ([5]; 28 DAT): 32.50%
